This is an account of results in paper PMC7284374 (Pharmaceutics, 2020).

For data set [1] the following is noted: cited from earlier work.
The conditions of data set [2]: 10 µM metformin.
Procedure: (§1) Hepatic and intestinal microsomes were prepared by the previously reported method as followings [17, 37, 38]: freshly excised livers were cut in pieces, washed extensively with ice-cold solution (KCl 0.15 M) to remove remaining blood and were homogenized with Tris-HCl buffer (pH 7.5) containing 0.15 M KCl + 50 mM Tris, 1 mM EDTA in a Potter-Elvehjem glass homogenizer for 30 s. The homogenate was centrifuged for 10 min at 10,000× g and 4 °C and then followed by ultracentrifugation of the remaining supernatant for 1 h at 100,000× g and 4 °C. Microsomal pellets were then re-suspended in the same buffer with a hand homogenizer and re-centrifuged for 1 h at 100,000× g and 4 °C. The supernatant was discarded, and the microsomal pellets were carefully overlaid with 0.15 mol KCl buffer and stored at −80 °C. Intestinal microsomes were prepared using freshly excised proximal and middle sections of the small intestine. […]
(§2) The unweighted kinetic data from the hepatic and intestinal microsomes were fitted using a single-site Michaelis−Menten equation; V = Vmax × [S]/(Km + [S]), in which [S] was the substrate concentration. The intrinsic clearance (CLint) was calculated by dividing the Vmax by the Km.
Data set [3] is described as follows: in vivo. Conditions: rat, plasma, iv, 30 mg/kg.
A short description of data set [4]: in vivo. Conditions: rat.
Data set [5] is described as follows: in vivo. Conditions: rat, plasma, po, 30 mg/kg.
For data set [6] the following is noted: 10 µM metformin. This is another data set of the same source.
Procedure: as §1, §2
The nature of data set [7]: Oral pharmacokinetics of verapamil and norverapamil with and without metformin in rats. The settings on record: for CL renal: plasma and urine, CLR; for half-life: Terminal half-life; for GI24 h: gastrointestinal tract at 24 h; for Ae0–24 h: urine up to 24 h.
The nature of data set [8]: Intravenous pharmacokinetics of verapamil and norverapamil with and without metformin in rats. Conditions: for CL renal: plasma and urine, CLR; for half-life: Terminal half-life; for GI24 h: gastrointestinal tract at 24 h; for Ae0–24 h: urine up to 24 h.
The conditions of data set [9]: rats, oral administration of both drugs together.
The conditions of data set [10]: rats, intravenous administration of both drugs together.
Setting [11] is: rat, plasma, po, 20 mg/kg, rats, oral verapamil 20 mg/kg, with metformin 30 mg/kg.
Where [12] appears, read: rat, plasma, po, 20 mg/kg, rats, oral verapamil 20 mg/kg, without metformin.
Where [13] appears, read: rats, oral verapamil 20 mg/kg, with metformin 30 mg/kg.
Where [14] appears, read: rats, oral verapamil 20 mg/kg, without metformin.
Setting [15] is: rat, plasma, iv, 20 mg/kg, rats, iv verapamil 20 mg/kg, with metformin 30 mg/kg.
Setting [16] is: rat, plasma, iv, 20 mg/kg, rats, iv verapamil 20 mg/kg, without metformin.
Where [17] appears, read: rats, iv verapamil 20 mg/kg, with metformin 30 mg/kg.
The mark [18] stands for this setting: rats, iv verapamil 20 mg/kg, without metformin.

Structures can show the parent of a compound that is named as a salt. Where two headings read alike, the source gives them in different places.

As to `CN(C)C(=N)N=C(N)N` [metformin, Metformin hydrochloride], the “renal excretion of metformin (OCT2-mediated)” value in [1] is reported as ~ 70 % of the metformin dose. The “effect of metformin on verapamil metabolism” value in data set [2] was “did not affect verapamil metabolism”. Besides, in the data set “in vivo [3]”, the AUC – broadly, concentration integrated over time – was 26500 ng·h/mL; the mean residence time (MRT) (usually a mean duration of stay, worked out from the concentration-time curve) was 21.4 min; the Vd – broadly, a proportionality between amount in the body and measured concentration, not a real space – amounted to 0.349 ± 0.128 L/kg. In the data set “in vivo [4]”, this molecule came in with a concentration at 0.5 h of 2910 ± 894 ng/mL. Also, in “in vivo [5]”, the AUC was 7870 ng·h/mL and the highest level (Cmax) was 2000 ± 328 ng/mL. Moreover, the “effect of metformin on verapamil metabolism” value in [6] is “did not affect verapamil metabolism”.
Regarding `COc1ccc(CCNCCCC(C#N)(c2ccc(OC)c(OC)c2)C(C)C)cc1OC` (stereo not drawn) [norverapamil], the CL renal in data set [7] (rat, po, 20 mg/kg, rats, oral verapamil 20 mg/kg, with metformin 30 mg/kg) was determined as 0.562 ± 0.445 mL/min/kg; in data set [7] (rat, po, 20 mg/kg, rats, oral verapamil 20 mg/kg, without metformin), 0.336 ± 0.107 mL/min/kg; in [8] (rat, iv, 20 mg/kg, rats, iv verapamil 20 mg/kg, with metformin 30 mg/kg), 3.76 ± 3.21 mL/h/kg; in data set [8] (rat, iv, 20 mg/kg, rats, iv verapamil 20 mg/kg, without metformin) it was 6.54 ± 6.12 mL/h/kg. Also, the Tmax in data set [7] (rat, plasma, po, 20 mg/kg) is 45 min; in [7] (rats, oral verapamil 20 mg/kg, with metformin 30 mg/kg, median (range)), 45 (15–105) min; in data set [8] (rat, plasma, iv, 20 mg/kg), 1 h; in data set [8] (rats, iv verapamil 20 mg/kg, with metformin 30 mg/kg, median (range)), 60 (30−90) min. The AUC in [7] (setting [11]) was 898 ng·h/mL; in [7] (setting [12]), 1140 ng·h/mL; in data set [8] (setting [15]) it was 3320 ng·h/mL; in data set [8] (setting [16]), 3130 ng·h/mL. The Cmax (as a rule, the maximum level reached in the sampled fluid or tissue) in [7] (setting [11]) turned out to be 273 ± 123 ng/mL; in [7] (setting [12]) it was 267 ± 141 ng/mL; in data set [8] (setting [15]), 1090 ± 308 ng/mL; in data set [8] (setting [16]) it was 1240 ± 386 ng/mL. Besides, the half-life (usually how long it takes for the measured level to halve) worked out at 117 ± 44.5 min in data set [7] (setting [11]), 168 ± 73.2 min in [7] (setting [12]), 63.3 ± 15.2 min in [8] (setting [15]) and 50.8 ± 10.2 min in data set [8] (setting [16]). For the same molecule, the GI24 h in [7] (setting [13]) is 0.0782 ± 0.0514 % of dose; in [7] (setting [14]), 0.0870 ± 0.0665 % of dose; in data set [8] (setting [17]), 0.126 ± 0.0927 % of dose; in data set [8] (setting [18]) it was 0.146 ± 0.0841 % of dose. Further, the “Ae0–24 h” value is 0.113 ± 0.0522 % of dose in data set [7] (setting [13]), 0.104 ± 0.0567 % of dose in data set [7] (setting [14]), 0.0585 ± 0.0453 % of dose in [8] (setting [17]) and 0.0872 ± 0.0691 % of dose in data set [8] (setting [18]).
As for `COc1ccc(CCN(C)CCCC(C#N)(c2ccc(OC)c(OC)c2)C(C)C)cc1OC` (stereo not drawn) [verapamil, Verapamil hydrochloride], the “effect of verapamil on the metformin concentration in the liver” value in data set [9] and in data set [10] was “did not cause any change” in each case.
